Data: PMC6470557, “Synthesis of New GABAA Receptor Modulator with Pyrazolo[1,5-a]quinazoline (PQ) Scaffold” (International Journal of Molecular Sciences, 2019)

Key:
Assay type in all cases: cell-based
[1] = target: T1, α1β2 GABAA receptor (α1 subunit) (Homo sapiens, UniProt P14867+P47870); test: voltage clamp: block of CGS […] potentiation (data not shown); […] [3H]flumazenil displacement at […] in bovine membranes
T1 construct: gene GABRA1; recombinant α1β2 receptor (devoid of the γ subunit) in Xenopus laevis oocytes; with GABAA receptor β2 subunit (GABRB2)
T1 sequence (P14867 28-456): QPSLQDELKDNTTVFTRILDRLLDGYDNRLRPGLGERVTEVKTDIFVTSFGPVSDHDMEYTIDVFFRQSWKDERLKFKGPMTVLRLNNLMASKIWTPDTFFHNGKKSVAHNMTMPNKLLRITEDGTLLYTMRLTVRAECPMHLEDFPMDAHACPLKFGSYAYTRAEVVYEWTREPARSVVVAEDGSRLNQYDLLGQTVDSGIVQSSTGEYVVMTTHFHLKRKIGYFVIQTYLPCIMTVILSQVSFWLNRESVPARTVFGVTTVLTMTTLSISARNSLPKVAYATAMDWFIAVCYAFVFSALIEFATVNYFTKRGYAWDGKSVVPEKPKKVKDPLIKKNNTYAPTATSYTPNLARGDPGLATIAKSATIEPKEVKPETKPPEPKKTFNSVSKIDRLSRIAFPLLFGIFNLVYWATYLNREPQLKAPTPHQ
T1 sequence (P47870 26-512): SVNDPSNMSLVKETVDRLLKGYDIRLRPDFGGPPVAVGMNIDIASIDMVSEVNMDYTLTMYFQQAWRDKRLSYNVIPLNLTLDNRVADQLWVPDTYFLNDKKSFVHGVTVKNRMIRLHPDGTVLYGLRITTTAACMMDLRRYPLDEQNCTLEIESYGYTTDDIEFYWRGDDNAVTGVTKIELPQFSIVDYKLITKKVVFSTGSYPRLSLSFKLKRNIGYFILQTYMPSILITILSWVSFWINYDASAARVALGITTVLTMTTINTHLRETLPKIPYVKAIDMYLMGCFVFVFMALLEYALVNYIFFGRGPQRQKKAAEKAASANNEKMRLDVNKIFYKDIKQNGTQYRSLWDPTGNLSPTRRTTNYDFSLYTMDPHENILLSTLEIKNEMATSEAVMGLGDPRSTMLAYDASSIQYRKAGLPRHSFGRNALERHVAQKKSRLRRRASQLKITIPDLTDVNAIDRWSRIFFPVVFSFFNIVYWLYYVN

[2] = target: T1, α1β2 GABAA receptor (α1 subunit); test: voltage clamp: reduction of CGS […] potentiation (data not shown); […] [3H]flumazenil displacement at […] in bovine membranes
[3] = target: T2, α1β2γ2L GABAA receptor (α1 subunit) (Homo sapiens, UniProt P14867+P18507); test: two-electrode voltage clamp of GABA currents in oocytes; also […] [3H]flumazenil displacement at […] in bovine membranes
T2 construct: gene GABRA1; recombinant α1β2γ2L receptor in Xenopus laevis oocytes; with GABAA receptor β2 (GABRB2) and γ2L (GABRG2) subunits
T2 sequence (P18507 40-475, one chain of several): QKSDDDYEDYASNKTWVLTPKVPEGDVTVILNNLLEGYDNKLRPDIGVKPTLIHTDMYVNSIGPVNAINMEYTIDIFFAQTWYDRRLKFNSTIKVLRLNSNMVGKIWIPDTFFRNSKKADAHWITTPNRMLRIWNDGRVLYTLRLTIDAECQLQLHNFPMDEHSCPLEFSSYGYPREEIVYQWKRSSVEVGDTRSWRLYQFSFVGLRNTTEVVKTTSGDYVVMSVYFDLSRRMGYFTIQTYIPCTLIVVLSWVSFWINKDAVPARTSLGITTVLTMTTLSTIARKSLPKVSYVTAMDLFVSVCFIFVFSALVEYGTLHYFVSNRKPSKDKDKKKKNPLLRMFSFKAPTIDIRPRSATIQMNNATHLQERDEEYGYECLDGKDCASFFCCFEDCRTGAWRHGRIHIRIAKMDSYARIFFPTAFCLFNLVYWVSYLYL

`COc1ccc2cnc3c(-c4cccs4)cnn3c2c1` [5d, 3-(Thien-2-yl)-8-methoxypyrazolo[1,5-a]quinazoline] was tested, and the “voltage clamp: block of CGS 9895 potentiation (data not shown); >80% [3H]flumaze” value [1] was “compounds 5d and 5e, which in the same test completely blocked or strongly reduced the potentiation of the GABAA receptor function”.

With `COc1ccc2cnc3c(-c4ccsc4)cnn3c2c1` [5e, 3-(Thien-3-yl)-8-methoxypyrazolo[1,5-a]quinazoline] the “voltage clamp: reduction of CGS 9895 potentiation (data not shown); >80% [3H]flu” value [2] was “compounds 5d and 5e, which in the same test completely blocked or strongly reduced the potentiation of the GABAA receptor function”.

`COc1ccc2cnc3c(C(=O)c4cccs4)cnn3c2c1` [6b, 3-(Thien-2-ylcarbonyl)-8-methoxypyrazolo[1,5-a]quinazoline] gave an EC50 [3] of 12 µM.
